Key:
[1] = tested on: MDA-MB-231 cells (human breast carcinoma); assay: in vitro invasion assay through matrigel (Transwell); format: cell-based; conditions: preliminary screen
Procedure: Razoxane, various bis(hydroxylated)(2,6-dioxopiperazine)s, and various hydrophobic analogs were tested in an in vitro assay for inhibition of tumor cell penetration of a reconstituted basement membrane, matrigel, isolated from the Englegbreth-Holm-Swarm (EHS) tumor (disclosed in Kleinman et al., Biochem. (1982), 24, 6188-6193) first described by Albini et al, Cancer Res. (1987) 47, 3234-3245. An 8 μm pore filter coated with matrigel separates a lower compartment containing a chemoattractant and an upper compartment containing the cells and test compound. In particular, the following compounds were tested: razoxane, (1α, 2α, 4α, 5α)-4,4'-(4,5-dihydroxy-1,2-cyclohexanediyl)bis(2,6-piperazinedione); (1α, 2α, 4β, 5β)-4,4'-(4,5-dihydroxy-1,2-cyclohexanediyl)bis(2,6-piperazinedione);(1β, 2α,4α,5α)-4,4'-(4,5-dihydroxy-1,2-cyclohexanediyl)bis(2,6-piperazinedione); (1β, 2α, 4α,5β)-4,4'-(4,5-dihydroxy-1,2-cyclohexanediyl)bis(2,6piperazinedione); (1α, 2β, 4α,5β)-4,4'-(4,5-dihydroxy-1,2cyclohexanediyl)bis(2,6-piperazinedione); N,N'-cyclohexane-1,2-diylbis[N(2-ethoxy-2-oxoethyl)]glycine; N,N'-4-cyclohexene-1,2-diylbis[N-(2-ethoxy-2-oxoethyl)-glycine ester; (3aα, 5β, 6β, 7aα)-4,4'-(hexahydro-2,2-dimethyl1,3-benzodioxole-5,6-diyl)bis(2,6-piperazinedione); (3aα, 5α, 6α, 7aα)-4,4'-(hexahydro-2,2-dimethyl-1,3-benzodioxole-5,6-diyl)bis(2,6- piperazinedione); (3aα, 5α, 6β, 7aα)-4,4'-(hexahydro-2,2-dimethyl-1,3-benzodioxole-5,6-diyl)bis-2,6- piperazinedione; (3aα, 5β, 6α, 7aβ)-4,4'-(hexahydro-2,2dimethyl-1,3-benzodioxole-5,6-diyl)bis(2,6-piperazinedione); and (3aα, 5α, 6β, 7aβ)-4,4'-(hexahydro-2,2-dimethyl-1,3-benzodioxole-5,6-diyl) bis(2,6piperazinedione). Metastatic cells are able to degrade the basement membrane protein barrier and migrate through the pores of the filter whereas non-metastatic cells remain on the upper surface. The cells that pass to the under side of the filter are then counted under a microscope. […] Variations of this assay have been used to correlate this in vitro invasion with metastatic potential in vivo (Albini et al. (Id.); Hendrix et al. Cancer Letters (1987); 38, 127-247; Repesh L. A., Invasion Metastasis (1989) 9, 192-208 to select for more highly invasive cells (Teranova et al., Proc. Nat. Acad. Sci., (1986), 83, 465, 464; Tullberg et al., Invasion Metastasis, (1989), 9, 13-26; Sefer et al., Biotechniques, (1990), 9, 324-331), and to test compounds for inhibition (Nakajima et al., Cancer Res. (1989), 49, 1698-1756).
This method has been improved to increase the number of assays which may be performed and analyzed per day. In particular, such improvement comprises the use of disposable Transwells (Costar) units described by Repesh et al., Invasion Metastasis, (1989), 9, 192-208, which consist of an 8 μm pore filter attached to an insert that fits in a 24 well culture plate. Matrigel concentration is titrated from zero to complete inhibition of motility of each invasive cell line used in the assay and for each batch of matrigel. The matrigel concentration which yields 50% or greater inhibition of motility in a 6 hr assay (usually from 15 to 50 μg of protein per filter) is chosen for determination of invasion. Motility of cells through the 8 μm filters is not by passive diffusion since the pore size is smaller than the cells, and is determined in the same chamber in the absence of matrigel. Motility is stimulated two-fold by the presence of fibroblast conditioned medium (3T3 cells) as a chemoattractant (data not shown). The cell lines used are HT-1080, a human fibrosarcoma, and MDA-MB-231, a human breast carcinoma (both available from the American Type Tissue Culture). These cell lines express both the 72 kD and the 92 kD collagenase type IV as determined by zymography (data not shown).
For inhibition studies, 5×10^5 cells are plated in 200 μl of DMEM+0.1% BSA+the inhibitor (or appropriate solvent control) into the upper chamber of the Transwell. […]

BALB/C mice [2] = assay: septic shock induced by i.p. endotoxin (Salmonella abortus equi); format: in vivo; conditions: for Survival/Total Ratio after 24 h / Survival/Total Ratio after 48 h / Survival/Total Ratio after 72 h: endotoxin2 (Salmonella abortus equi) i.p., drug i.p. 1 h before, 9 h and 20 h after
Procedure: Effect of razoxane in preventing death due to endotoxin-induced septic shock. Twelve BALB/c mice (female, 10-12 weeks old, 18-20 g) were injected i.p. with endotoxin (Salmonella abortus equi) twice at time zero (70 μg/mouse) and 48 h (30 μg/mouse). Razoxane (2 mg/mouse, in 1% sodium carboxymethyl cellulose) was given i.p. three times, i.e., 1 h. before, 9 h. and 20 h. after injection of initial dose of endotoxin. Another twelve mice, injected with endotoxin as above, were treated with buffer solution (1 % sodium carboxymethyl cellulose) as negative controls. It can be seen therein that the majority of control mice were dead within 50 hours of the initial endotoxin administration. In contrast, approximately 80% of the razoxane treated mice were still alive after 50 hours. Moreover, about 60% of the razoxane treated mice were still alive 100 hours after endotoxin administration, and recovered later on.
Effect of Compound 80 in preventing death due to endotoxin-induced septic shock. Twenty BALB/c mice (female, 10-12 weeks old, 18-20 g) were injected i.p. with endotoxin (Salmonella abortus equi, 100 μg/mouse). Compound 80 (0.33 mg/mouse) was given i.p. to 10 mice three times, i.e., 1 hour before, 9 hours and 20 hours after injection of endotoxin. The other 10 mice were injected with diluents as negative controls. The number of the mice survived at different periods to time after endotoxin injection were recorded. (P<0.0002).

L1210 leukemia = conditions: 13 doses at 30 mg/kg; cited from earlier work
BALB/C mice [3] = assay: septic shock induced by galactosamine and endotoxin (E. coli 026:B6); format: in vivo
Procedure: Ten BALB/C mine were injected i.p. with 18 mg of D-galactosamine and 1 μg of endotoxin. Three units of heparin were given i.v. and 10 units heparin were given subcutaneously at 30 min to prevent intravascular coagulation.
Ten BALB/C mice were treated with razoxane (100 μg/g body weight i.p., dissolved in 1% carboxymethyl-cellulose in normal saline). The mice were then injected i.p. with 18 mg of D-galactosamine and 1 μg of endotoxin. Three units of heparin were given i.v. and 10 units heparin were given subcutaneously to each mice at 30 min.

mouse L cell = conditions: l cells; read-out: ID50 inhibition of colony formation; cited from earlier work
[4] = galactosamine + endotoxin1 (E. coli 026:B6)
[5] = razoxane 2 mg/mouse i.p. three times, endotoxin 70 μg at 0 h and 30 μg at 48 h

Row | SMILES | inhibition of invasion [1] | effect on cell motility ([1]; no matrigel) | Survival/Total Ratio after 24 h (BALB/C mice [2]) | Survival/Total Ratio after 48 h (BALB/C mice [2]) | Survival/Total Ratio after 72 h (BALB/C mice [2]) | increase in survival time (L1210 leukemia) [%] | Survival/Total Ratio after 24 h (BALB/C mice [3]; [4]) | Survival/Total Ratio after 48 h (BALB/C mice [3]; [4]) | Survival/Total Ratio after 72 h (BALB/C mice [3]; [4]) | mice surviving more than 24 h (BALB/C mice [3]; razoxane 100 μg/g i.p. before 18 mg D-galactosamine + 1 μg endotoxin i.p., heparin) | IC50 (mouse L cell) [nM] | treated mice still alive 100 hours after endotoxin administration (BALB/C mice [2]; [5]) | treated mice still alive after 50 hours (BALB/C mice [2]; [5])
1 | CC1(C)O[C@H]2C[C@H](N3CC(=O)NC(=O)C3)[C@@H](N3CC(=O)NC(=O)C3)C[C@@H]2O1 (relative stereo) [Compound 80, (3aα, 5β, 6α, 7aβ)-4,4'-(hexahydro-2,2-dimethyl-1,3-benzodioxole-5,6-diyl)bis(2,6-piperazinedione)] | inhibit invasion | without inhibiting cell motility | 10/10 | 8/10 | 6/10 |  |  |  |  |  |  |  | 
2 | CC(CN1CC(=O)NC(=O)C1)N1CC(=O)NC(=O)C1 (stereo not shown) [razoxane] |  |  | 10/12 | 9/12 | 7/12 | 137 | 2/10 | 2/10 | 2/10 | Two out of ten | 3000 | about 60% | approximately 80%
